The results in this text go back to patent US11266616B2, “Compositions and methods for inhibiting kinase activity” (BRANDEIS UNIVERSITY, priority 2016, dated 2022).

Data set [1] relates to dephosphorylated Aurora A kinase-TPX2 chimera. Kind of data set: ITC binding to dephosphorylated Aurora A kinase-TPX2 chimera. Set-up: species or system human. The following applies: PIF pocket occupied by TPX2; relative to Aurora A kinase alone. As for the experimental part:
(§1) Titrations were carried out using Nano ITC isothermal titration calorimeter (TA Instruments) and analyzed via the NanoAnalyze software using the independent fit model. Injectant was added in 1 μl volume, every 180 s, with a constant stirring speed at 350 rpm and at 25° C. Prior to ITC titration, both protein and TPX2 or monobody were dialyzed/resuspended in ITC buffer (20 mM TrisHCl, 200 mM NaCl, 3% (vol/vol) glycerol, 1 mM TCEP, pH 7.50).

Data set [2] concerns the target T1, dephosphorylated Aurora A kinase (Homo sapiens, UniProt O14965).
T1 construct: Codon-optimized Aurora A^122-403 in pET28a and untagged λPP in T7-7 plasmid were co-transformed in BL21(DE3) cells; inferred from pET28a and the NiNTA column) (cleaved yes); made in house; host or cells: E. coli BL21(DE3), co-expressed with lambda protein phosphatase
T1 sequence (O14965 122-403): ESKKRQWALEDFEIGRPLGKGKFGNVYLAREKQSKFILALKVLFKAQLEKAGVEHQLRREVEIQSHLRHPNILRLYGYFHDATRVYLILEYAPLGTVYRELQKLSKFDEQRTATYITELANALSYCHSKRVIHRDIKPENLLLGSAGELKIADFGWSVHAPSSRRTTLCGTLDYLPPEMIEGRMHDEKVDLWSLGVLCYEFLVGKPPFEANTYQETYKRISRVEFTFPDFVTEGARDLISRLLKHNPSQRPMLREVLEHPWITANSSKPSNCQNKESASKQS
Kind of data set: Isothermal titration calorimetry (ITC) binding to dephosphorylated Aurora A kinase. The protocol: as §1
(In general: ITC needs no label: the signal is the heat of the interaction.)

Data set [3] concerns the target T2, Aurora A kinase (Homo sapiens, UniProt O14965).
T2 construct: Codon-optimized Aurora A^122-403 in pET28a and untagged λPP in T7-7 plasmid were co-transformed in BL21(DE3) cells; inferred from pET28a and the NiNTA column) (cleaved yes); made in house; host or cells: E. coli BL21(DE3)
T2 sequence (O14965 122-403): T1 sequence (O14965 122-403)
Kind of data set: In vitro kinase assay (HPLC-based / ATP/NADH-coupled) of peptide substrate phosphorylation. Format: biochemical. To be noted: phosphorylated Aurora A, AP peptide, FIG. 20. The protocol:
(§2) Aurora A, either phosphorylated/dephosphorylated wild type or mutant protein, was mixed with either AP ([…]) (SEQ ID NO: 5), Kemptide (LRRASLG) (SEQ ID NO: 6), or Lats2 ([…]) (SEQ ID NO: 7), in the absence or presence of 50 μM TPX2 in kinase buffer (20 mM TrisHCl, 200 mM NaCl, 3% [vol/vol] glycerol, 20 mM MgCl2, 1 mM TCEP, pH 7.50). These substrates comprise the consensus sequence for Aurora A ([R/K/N]—R—X—[S/T]-B where B is any hydrophobic residue with the exception of Pro) (Ferrari et al., 2005, Biochem. J., 390(Pt 1):293-302; Ohashi et al., 2006, Oncogene, 25:7691-7702; Sardon et al., 2010, EMBO Reports, 11:977-984). Peptides were ordered through Genscript. For HPLC-based activity assays the following protocol was used. The reaction was initiated with the addition of 5 mM ATP. Then 5 μl time points were collected, resuspended in 10 μl 6% (vol/vol) trichloroacetic acid (in water) to quench the reaction, and neutralized with 50 μl 100 mM KH2PO4, pH 8.0 to provide the appropriate pH for nucleotide separation. The mixture was then passed through a 0.22 μm SpinX column to remove any protein precipitation. Reverse phase-high performance liquid chromatography (RP-HPLC) and an ACE 5 C18-AR, 100 Å pore size column, were used to separate nucleotides as well as peptides. For nucleotide runs, 2 μl of the aforementioned mixture was sufficient for analysis, whereas for the peptide runs the optimal injection volume was 20 μl. Nucleotide runs were routinely performed to ensure no unproductive hydrolysis was occurring during the experiment. An isocratic elution run in 100 mM KH2PO4, pH 6.0 was performed for this purpose. For the peptide runs, a gradient of 0-30% of elution buffer lasting 10 min at 0.4 mL/min was sufficient to separate phosphorylated from non-phosphorylated species. The running buffer was 0.1% TFA (vol/vol) in water, while the elution buffer was 100% acetonitrile. Lastly, to ensure full saturation of Aurora A by TPX2 and test these proteins were well behaved, a dose-dependence curve of the effect of TPX2 on Aurora A was obtained.
(§3) For ATP/NADH-coupled assay-based reaction, the following protocol was used. Phosphorylation of different concentrations of Lats2 peptide was monitored using the ATP/NADH coupled assay in a 96-well plate format. Reactions were carried in the presence of 1 μM dephosphorylated or 0.05 μM phosphorylated Aurora and 5 mM ATP in assay buffer (20 mM TrisHCl, 200 mM NaCl, 20 mM MgCl2, 10% (v/v) glycerol, 1 mM TCEP, pH 7.50) at 25° C.

The target of data set [4] is T3, Aurora A kinase (Homo sapiens, UniProt O14965, T288V).
T3 construct: Codon-optimized Aurora A^122-403 in pET28a and untagged λPP in T7-7 plasmid were co-transformed in BL21(DE3) cells; made in house; host or cells: E. coli BL21(DE3)
T3 sequence (O14965 122-403 T288V): T1 sequence (O14965 122-403) with T167V
The description is as above. Format: biochemical. To be noted: dephosphorylated Aurora A (T288V mutant), AP peptide, FIG. 20. The protocol:
as §2, §3

Changes are numbered by the printed parent chain.

With `CO[C@@H](C(=O)N1Cc2[nH]nc(NC(=O)c3ccc(N4CCN(C)CC4)cc3)c2C1)c1ccccc1` [danusertib, reference compound], the “binding of danusertib to Aurora A kinase chimera weaker than binding to Aurora A kinase” value in data set [1] is reported as “about 4 times”. In data set [2] (Aurora A pre-saturated with activating monobody Mb54 (aka Mb1), FIG. 10C), the “weakening of binding affinity of danusertib” value is 19 fold. Also, the “tightening of binding affinity of danusertib” value in data set [2] (Aurora A pre-saturated with inhibiting monobody Mb60 (aka Mb2), FIG. 10C) was determined as 4.7 fold. For the same molecule, the “binding of danusertib to Aurora A tighter in the presence of PS48” value in data set [2] (saturating levels of PS48 vs none) is reported as “about 2 times”.
Turning to “TPX2: naturally occurring allosteric activator of Aurora A kinase, binds the PIF pocket (MSQVKSSYSYDAPSDFINFSSLDDEGDTQNIDSWFEEKANLENKL) [reference compound]”, the “effect of TPX2 binding on kinase activity” value with Aurora A kinase [3] is on record as “only slightly increased”; in the data set with Aurora A kinase [4] it was “greatly increased”.
